The results in this text go back to patent US12571052B2, “Immunomodulatory RNA” (THE TRUSTEES OF THE UNIVERSITY OF PENNSYLVANIA, priority 2017, dated 2026).

Data set [1] has as its system myeloid/dendritic cells in the spleen. As to the kind of experiment: Spleen myeloid/dendritic cell activation after intravenous injection. The data set is classed as in vivo, mice.
Another data set deals with T1, recombinant RIG-I (Homo sapiens, UniProt O95786).
T1 sequence (O95786 1-925): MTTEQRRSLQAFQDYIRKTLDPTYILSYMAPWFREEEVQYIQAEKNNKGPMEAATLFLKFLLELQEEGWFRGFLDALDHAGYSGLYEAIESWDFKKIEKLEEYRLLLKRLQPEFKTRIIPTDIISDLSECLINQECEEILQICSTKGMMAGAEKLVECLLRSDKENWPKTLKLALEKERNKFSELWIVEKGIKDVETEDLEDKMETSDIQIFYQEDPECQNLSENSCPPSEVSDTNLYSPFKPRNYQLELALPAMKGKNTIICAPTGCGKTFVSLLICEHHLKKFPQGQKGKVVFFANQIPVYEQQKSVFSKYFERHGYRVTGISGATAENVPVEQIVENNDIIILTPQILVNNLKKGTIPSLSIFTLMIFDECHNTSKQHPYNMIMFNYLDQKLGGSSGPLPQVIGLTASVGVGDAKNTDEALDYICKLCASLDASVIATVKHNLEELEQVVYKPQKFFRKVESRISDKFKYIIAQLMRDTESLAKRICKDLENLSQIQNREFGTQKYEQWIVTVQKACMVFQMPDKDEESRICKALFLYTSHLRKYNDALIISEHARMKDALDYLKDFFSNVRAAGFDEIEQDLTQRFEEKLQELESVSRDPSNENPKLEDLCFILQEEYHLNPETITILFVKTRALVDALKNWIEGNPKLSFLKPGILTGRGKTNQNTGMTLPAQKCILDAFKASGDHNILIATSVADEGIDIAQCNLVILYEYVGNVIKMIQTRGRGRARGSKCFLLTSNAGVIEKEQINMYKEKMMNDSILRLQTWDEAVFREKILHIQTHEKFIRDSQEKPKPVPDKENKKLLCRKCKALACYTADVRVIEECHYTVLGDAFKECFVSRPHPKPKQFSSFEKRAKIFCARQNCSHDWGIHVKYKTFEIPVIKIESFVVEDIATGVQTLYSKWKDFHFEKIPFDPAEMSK
In words: RIG-I ATPase assay (ATP hydrolysis). The data set is classed as biochemical. As to conditions: RNA added to recombinant RIG-I, equimolar amounts. Here is the method:
RIG-I ATPase Assays. RIG-I ATPase assays were performed as previously described (Devarkar et al. (2016) Proc. Natl. Acad. Sci. 113, 596-601). In brief, increasing amounts of RNA (10-60 nM) were added to a constant quantity of RIG-I (5 nM) in the presence of 1 mM ATP. ATP hydrolysis was measured with the EnzChek Phosphate Assay Kit (ThermoFisher) after 60-90 minutes at 37° C. ATP hydrolysis was then measured by absorbance of 360 nm compared to background. A 19-mer 5′triphosphate dsRNA (Invivogen) and DVG396 were used as positive controls and a 19-mer 5′OH dsRNA (Invivogen) and an in vitro transcribed 300 bp ssRNA stretch of GAPDH (GAPDH300) were used as negative controls.

Another data set deals with 1833 breast cancer cells. In words: ISG expression in breast cancer cells after RNA transfection (qRT-PCR). It is filed as cell-based, Human. Here is the method: Gene Targeting and Expression. Gene knockdown by siRNA was completed using SMARTPool siRNAs (Thermo) and transfected using 20 nM siRNA and RNAiMax (Invitrogen) transfection reagent. For stable knockdowns, shRNAs were cloned into the pGIPZ vector and transduced by virus using pCMV-VSV-G and pHR8.2AR envelope and packaging vectors in HEK293T cells. Transduced cells were selected using 1-2 ug/ml of puromycin. Wild-type and K858A/K861A binding mutant of RIG-I was cloned into the pOZ-N vector. Transduced cells were then selected with IL-2 receptor magnetic beads and expression was confirmed by Western blot for FLAG, HA, and RIG-I. RIG-I restoration was functionally confirmed by RIG-I pathway activation in response to Sendai virus infection. SRP9 and SRP14 were transiently transfected with pGFH-9 (Addgene plasmid #39538) and pGFH-14c (Addgene plasmid #39541), both gifts from Katharina Strub. Gene knockout by CRISPR was accomplished using pSpCas9 (BB)-2A-GFP (PX458) (Addgene plasmid #48138). RIG-I was knocked out utilizing the protocol described (Ran et al. (2013) Nat. Protoc. 8, 2281-2308). In brief, two distinct guide RNAs cloned into the pSpCas9 (BB)-2A-GFP backbone were transiently transfected into breast cancer cells. After 48 hours, single cells were sorted into 96 well single cell clones based on highest GFP expression. Clones were confirmed to have no RIG-I expression by immunoblot and pooled. RIG-I KO in the pooled clones were functionally confirmed by RIG-I pathway activation in response to Sendai virus infection.
In Vitro Transcription. In vitro transcription was performed using of PCR amplified cDNA templates that contained Hepatitis Delta Virus Ribozyme to ensure homogenous 3′ ends of the transcripts of interest (Avis et al. (2012) Methods Mol. Biol. 941, 83-97). In vitro transcription was completed with the MEGAshortscript T7 Transcription Kit (ThermoFisher) according to manufacturer's instructions. RNA was DNase treated and phenol/chloroform purified. After thermocycling to ensure ribozyme cleavage, correct size transcripts were gel purified. […]
On the technique in general: Quantitative PCR measures a nucleic acid by following its amplification.

Entries after “also recorded” stand apart in the source; their conditions may differ.

As for “RN7SL1: Human RN7SL1 (7SL, srpRNA) RNA, 5'ppp, in vitro transcribed or secreted unshielded in exosomes; SEQ ID NO: 2”, the “myeloid/dendritic cell maturation and activation (MHCII+ and CD86+)” value in data set [1] is reported as “promote immune cell activation in the neutral immune environment of mouse spleens”. In addition, the “RIG-I ATP helicase activity as measured by ATP hydrolysis” value in the data set with recombinant RIG-I is recorded as “directly binds recombinant RIG-I; also recorded: comparable to an equimolar amount of Sendai virus-derived RNA (DVG396)”. The “ISG induction after transfection” value is reported as “induces ISGs in breast cancer cells specifically in a RIG-I-dependent manner” in the data set with 1833 breast cancer cells (1833 cells, RIG-I wild type); “restored antiviral signaling” with 1833 breast cancer cells (RIG-I KO cells with re-expression of WT RIG-I); “abolished ISG induction” in the data set with 1833 breast cancer cells (alkaline phosphatase treatment prior to transfection).
